One assay concerns the target Human thrombin (Homo sapiens (Human), UniProt P00734). Description: Thrombin protease activity inhibition assay (chromogenic substrate S-2238). In kind it is biochemical. To be noted: 3 nM thrombin, 125 μM S-2238, 10 min pre-incubation, RT. The method, boiled down:
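Thrombin at 3 nM final in 0.05 M Tris pH 7.4, 0.015 M NaCl, 0.01% PEG-8000, at room temperature; compounds as ten-point three-fold dilutions.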

The target in another assay is Human KLKB1 (Homo sapiens (Human), UniProt P03952). Description: KLKB1 kallikrein activity inhibition assay (chromogenic substrate S-2302). In kind it is biochemical. The method, boiled down: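 Enzyme at a final 3 nM was assayed in 0.05 M Tris pH 7.4, 0.01 M NaCl and 0.2% PEG-8000 at room temperature, with compounds as ten-point threefold dilutions.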
Setting [1] is: 3 nM KLKB1, 250 μM S-2302, 10 min pre-incubation, RT.

Like-named read-outs stand apart in the source and are kept apart here. Bounds are passed on as bounds.

Chain of Human KLKB1 (P03952 391-638 limits assumed): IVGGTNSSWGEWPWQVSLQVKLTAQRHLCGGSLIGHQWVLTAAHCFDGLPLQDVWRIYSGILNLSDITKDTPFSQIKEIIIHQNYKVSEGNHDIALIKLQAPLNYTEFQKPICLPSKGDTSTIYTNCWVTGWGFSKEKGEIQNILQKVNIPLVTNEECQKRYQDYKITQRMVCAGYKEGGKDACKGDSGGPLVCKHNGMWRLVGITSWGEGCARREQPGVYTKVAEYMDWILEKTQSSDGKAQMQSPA
Chain of Human KLKB1 (P03952 20-390 partner limits assumed): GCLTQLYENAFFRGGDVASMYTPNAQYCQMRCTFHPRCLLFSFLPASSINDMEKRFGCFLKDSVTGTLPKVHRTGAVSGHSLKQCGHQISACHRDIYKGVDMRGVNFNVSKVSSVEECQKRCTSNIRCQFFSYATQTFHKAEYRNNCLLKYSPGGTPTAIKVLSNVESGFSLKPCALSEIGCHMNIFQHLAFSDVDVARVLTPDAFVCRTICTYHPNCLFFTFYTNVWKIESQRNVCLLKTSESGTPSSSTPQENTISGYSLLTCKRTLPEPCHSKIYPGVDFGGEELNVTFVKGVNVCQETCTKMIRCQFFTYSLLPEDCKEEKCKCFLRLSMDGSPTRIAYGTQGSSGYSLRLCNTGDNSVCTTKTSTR

The term IC50 denotes the concentration that gives 50% inhibition. Higher therefore signals weaker potency. For the molecule `O=C(c1ccoc1)n1nc(-c2cccn(Cc3cccs3)c2=O)cc1NCc1ccc(Cl)s1` [Cmpd 5, 3-(5-[(5-chlorothiophen-2-yl)methyl]amino-1-[(furan-3-yl)carbonyl]-1H-pyrazol-3-yl)-1-(thiophen-2-ylmethyl)-1,2-dihydropyridin-2-one], the IC50 against Human thrombin is < 100 nM; against Human KLKB1 (Table B) it was 1 to 10 µM. As to `COc1ccc(C(=O)n2nc(-c3cccn(Cc4ccccc4)c3=O)cc2NCc2ccc(Cl)s2)c(OC)c1` [Cmpd 46, 1-benzyl-3-(5-[(5-chlorothiophen-2-yl)methyl]amino-1-[(2,4-dimethoxyphenyl)carbonyl]-1H-pyrazol-3-yl)-1,2-dihydropyridin-2-one], the figures for the half-maximal inhibitory concentration (IC50) at Human thrombin and against Human KLKB1 (Table B) were < 100 nM and 10 to 100 µM, respectively. In the case of `CC1(C(=O)n2nc(-c3cccn(Cc4ccccc4)c3=O)cc2NCc2ccc(Cl)s2)CCOCC1` [Cmpd 48, 1-benzyl-3-(5-[(5-chlorothiophen-2-yl)methyl]amino-1-[(4-methyloxan-4-yl)carbonyl]-1H-pyrazol-3-yl)-1,2-dihydropyridin-2-one], the values for the IC50 against Human thrombin and against Human KLKB1 (Table B) were < 100 nM and > 100 µM, respectively. Regarding `O=C(c1ccco1)n1nc(-c2cccn(Cc3ccccc3)c2=O)cc1NCc1ccc(Cl)s1` [Cmpd 49, 1-benzyl-3-(5-[(5-chlorothiophen-2-yl)methyl]amino-1-[(furan-2-yl)carbonyl]-1H-pyrazol-3-yl)-1,2-dihydropyridin-2-one], the IC50 on Human thrombin is < 100 nM; at Human KLKB1 (Table B) it was 0.1 to 1 µM. Taken in the same sequence, the figures for `O=C(c1ccoc1)n1nc(-c2cccn(Cc3ccccc3)c2=O)cc1NCc1ccc(Cl)s1` [Cmpd 50, 1-benzyl-3-(5-[(5-chlorothiophen-2-yl)methyl]amino-1-[(furan-3-yl)carbonyl]-1H-pyrazol-3-yl)-1,2-dihydropyridin-2-one] were < 100 nM and 10 to 100 µM. As to `O=C(c1cccs1)n1nc(-c2cccn(Cc3ccccc3)c2=O)cc1NCc1ccc(Cl)s1` [Cmpd 51, 1-benzyl-3-(5-[(5-chlorothiophen-2-yl)methyl]amino-1-[(thiophen-2-yl)carbonyl]-1H-pyrazol-3-yl)-1,2-dihydropyridin-2-one], the results for the IC50 on Human thrombin and at Human KLKB1 (Table B) were < 100 nM and > 100 µM, respectively. On to `O=C(c1ccsc1)n1nc(-c2cccn(Cc3ccccc3)c2=O)cc1NCc1ccc(Cl)s1` [Cmpd 52, 1-benzyl-3-(5-[(5-chlorothiophen-2-yl)methyl]amino-1-[(thiophen-3-yl)carbonyl]-1H-pyrazol-3-yl)-1,2-dihydropyridin-2-one], for which the IC50 was < 100 nM at Human thrombin and 0.1 to 1 µM at Human KLKB1 (Table B). Taken in the same sequence, the figures for `O=C(c1ccc(N2CCOCC2)cc1)n1nc(-c2cccn(Cc3ccccc3)c2=O)cc1NCc1ccc(Cl)s1` [Cmpd 53, 1-benzyl-3-(5-[(5-chlorothiophen-2-yl)methyl]amino-1-[4-(morpholin-4-yl)phenyl]carbonyl-1H-pyrazol-3-yl)-1,2-dihydropyridin-2-one] were < 100 nM and > 100 µM. In the same order, the values of `COCCn1cccc(-c2cc(NCc3ccc(Cl)s3)n(C(=O)c3ccccc3)n2)c1=O` [Cmpd 62, 3-(1-benzoyl-5-[(5-chlorothiophen-2-yl)methyl]amino-1H-pyrazol-3-yl)-1-(2-methoxyethyl)-1,2-dihydropyridin-2-one] are < 100 nM and 1 to 10 µM.

As for `Cn1cccc(-c2cc(NCc3ccc(Cl)s3)n(C(=O)c3ccccc3)n2)c1=O` [Cmpd 73, 3-(1-benzoyl-5-[(5-chlorothiophen-2-yl)methyl]amino-1H-pyrazol-3-yl)-1-methyl-1,2-dihydropyridin-2-one], the figures for the IC50 at Human thrombin and against Human KLKB1 (Table B) were < 100 nM and > 100 µM, respectively. Consider `CC(C)(C)C(=O)n1nc(-c2cccn(Cc3ccco3)c2=O)cc1NCc1ccc(Cl)s1` [Cmpd 77, 3-(5-[(5-chlorothiophen-2-yl)methyl]amino-1-(2,2-dimethylpropanoyl)-1H-pyrazol-3-yl)-1-(furan-2-ylmethyl)-1,2-dihydropyridin-2-one], for which the figures for the IC50 against Human thrombin and at Human KLKB1 (Table B) were < 100 nM and > 100 µM, respectively. Regarding `COCCn1cccc(-c2cc(NCc3ccc(Cl)s3)n(C(=O)C(C)(C)CO)n2)c1=O` [Cmpd 92, 3-(5-[(5-chlorothiophen-2-yl)methyl]amino-1-(3-hydroxy-2,2-dimethylpropanoyl)-1H-pyrazol-3-yl)-1-(2-methoxyethyl)-1,2-dihydropyridin-2-one], the results for the IC50 on Human thrombin and on Human KLKB1 (Table B) were < 100 nM and 10 to 100 µM, respectively. Turning to `CC(C)(CO)C(=O)n1nc(-c2cccn(Cc3ccco3)c2=O)cc1NCc1ccc(Cl)s1` [Cmpd 93, 3-(5-[(5-chlorothiophen-2-yl)methyl]amino-1-(3-hydroxy-2,2-dimethylpropanoyl)-1H-pyrazol-3-yl)-1-(furan-2-ylmethyl)-1,2-dihydropyridin-2-one], the IC50 on Human thrombin is < 100 nM; against Human KLKB1 (Table B) it was 10 to 100 µM. Consider `CC(C)(CO)C(=O)n1nc(-c2cccn(Cc3cccnc3)c2=O)cc1NCc1ccc(Cl)s1` [Cmpd 94, 3-(5-[(5-chlorothiophen-2-yl)methyl]amino-1-(3-hydroxy-2,2-dimethylpropanoyl)-1H-pyrazol-3-yl)-1-(pyridin-3-ylmethyl)-1,2-dihydropyridin-2-one], for which the results for the IC50 against Human thrombin and at Human KLKB1 (Table B) were < 100 nM and 1 to 10 µM, respectively. In the case of `COC(=O)c1n[nH]c(NC(=O)c2ccc(C)cc2)n1` [Cmpd 408, methyl 5-[(4-methylbenzene)amido]-1H-1,2,4-triazole-3-carboxylate], the IC50 on Human KLKB1 was > 100 µM. With `O=C(Oc1ccccc1)n1nc(-c2cccnc2)nc1NCc1ccc(F)cc1` [Cmpd 409], the IC50 on Human KLKB1 (Table C) is > 100 µM. Consider `CC(C)OC(=O)n1nc(-c2cccnc2)nc1NCc1ccc(F)cc1` [Cmpd 410], for which, on Human KLKB1 (Table C), the IC50 was > 100 µM.

Take `COc1ccccc1C(=O)n1nc(C2CN(C(=O)OC(C)(C)C)C2)nc1NCc1ccc(Cl)s1` [Cmpd 411]: the IC50 at Human KLKB1 (Table C) lay in the range of 0.1 to 1 µM. Regarding `COc1ccccc1C(=O)n1nc(C2CCN(C(=O)OC(C)(C)C)CC2)nc1NCc1ccc(Cl)s1` [Cmpd 412], the IC50 against Human KLKB1 (Table C) was 0.1 to 1 µM.

`CC(C)(C)OC(=O)n1nc(-c2cccnc2)nc1NCc1ccc(F)cc1` [Cmpd 413]: the IC50 against Human KLKB1 (Table C) is > 100 µM. In the case of `O=C(NCc1ccc2[nH]cc(Cl)c2c1)[C@@H]1CC(=O)N(Cc2ccc(Cl)cc2)C1` [Cmpd 414, (3R)-N-[(3-chloro-1H-indol-5-yl)methyl]-1-[(4-chlorophenyl)methyl]-5-oxopyrrolidine-3-carboxamide], at Human KLKB1 (setting [1]), the IC50 was > 100 µM. Consider `O=C(NCc1ccc2[nH]cc(Cl)c2c1)[C@H]1CC(=O)N(Cc2ccccc2)C1` [Cmpd 415, (3S)-1-benzyl-N-[(3-chloro-1H-indol-5-yl)methyl]-5-oxopyrrolidine-3-carboxamide], for which the IC50 at Human KLKB1 (setting [1]) was > 100 µM.

For `Cn1cc(Cl)c2cc(CNC(=O)[C@H]3CC(=O)N(Cc4ccc(Cl)cc4)C3)ccc21` [Cmpd 416, (3S)-N-[(3-chloro-1-methyl-1H-indol-5-yl)methyl]-1-[(4-chlorophenyl)methyl]-5-oxopyrrolidine-3-carboxamide], at Human KLKB1 (setting [1]), the IC50 fell in the range of 10 to 100 µM.

As for `O=C(NCc1ccc2[nH]cc(Cl)c2c1)[C@H]1CC(=O)N(Cc2ccccc2Cl)C1` [Cmpd 417, (3S)-N-[(3-chloro-1H-indol-5-yl)methyl]-1-[(2-chlorophenyl)methyl]-5-oxopyrrolidine-3-carboxamide], the IC50 at Human KLKB1 (setting [1]) was in the range of 10 to 100 µM. Same read-out and setting: the value for `O=C(NCc1ccc2[nH]cc(Cl)c2c1)[C@H]1CC(=O)N(Cc2cccc(Cl)c2)C1` [Cmpd 418, (3S)-N-[(3-chloro-1H-indol-5-yl)methyl]-1-[(3-chlorophenyl)methyl]-5-oxopyrrolidine-3-carboxamide] was > 100 µM. As to `Cc1cc(N(C)c2ccccc2F)nc(N[C@@H]2CCc3c(N)cccc3C2)n1` [Cmpd 419, 2-N-[(2R)-5-amino-1,2,3,4-tetrahydronaphthalen-2-yl]-4-N-(2-fluorophenyl)-4-N,6-dimethylpyrimidine-2,4-diamine], on Human KLKB1 (setting [1]), the IC50 was > 100 µM.

Regarding `Cc1cc(N(C)c2cccc(F)c2)nc(N[C@@H]2CCc3c(N)cccc3C2)n1` [Cmpd 420, 2-N-[(2R)-5-amino-1,2,3,4-tetrahydronaphthalen-2-yl]-4-N-(3-fluorophenyl)-4-N,6-dimethylpyrimidine-2,4-diamine], at Human KLKB1 (setting [1]), the IC50 was > 100 µM. Same read-out and setting: with `Cc1cc(N(C)c2ccc(F)cc2)nc(N[C@@H]2CCc3c(N)cccc3C2)n1` [Cmpd 421, 2-N-[(2R)-5-amino-1,2,3,4-tetrahydronaphthalen-2-yl]-4-N-(4-fluorophenyl)-4-N,6-dimethylpyrimidine-2,4-diamine] the figure was > 100 µM; with `Cc1cc(N(C)c2ccccc2)nc(N[C@H]2CCc3c(N)cccc3C2)n1` [Cmpd 422, 2-N-[(2S)-5-amino-1,2,3,4-tetrahydronaphthalen-2-yl]-4-N,6-dimethyl-4-N-phenylpyrimidine-2,4-diamine], > 100 µM. Take `Cc1cc(N(C)c2ccccc2Cl)nc(N[C@H]2CCc3c(N)cccc3C2)n1` [Cmpd 423, 2-N-[(2S)-5-amino-1,2,3,4-tetrahydronaphthalen-2-yl]-4-N-(2-chlorophenyl)-4-N,6-dimethylpyrimidine-2,4-diamine]: the IC50 against Human KLKB1 (setting [1]) was 10 to 100 µM. With `Cc1cc(N(C)c2cccc(Cl)c2)nc(N[C@H]2CCc3c(N)cccc3C2)n1` [Cmpd 424, 2-N-[(2S)-5-amino-1,2,3,4-tetrahydronaphthalen-2-yl]-4-N-(3-chlorophenyl)-4-N,6-dimethylpyrimidine-2,4-diamine], the IC50 against Human KLKB1 (setting [1]) is > 100 µM. For the molecule `Cc1cc(N(C)c2ccc(Cl)cc2)nc(N[C@H]2CCc3c(N)cccc3C2)n1` [Cmpd 425, 2-N-[(2S)-5-amino-1,2,3,4-tetrahydronaphthalen-2-yl]-4-N-(4-chlorophenyl)-4-N,6-dimethylpyrimidine-2,4-diamine], the IC50 against Human KLKB1 (setting [1]) was > 100 µM.

For the origin of these results see patent publication US9687479B2, “Multisubstituted aromatic compounds as serine protease inhibitors” (VERSEON CORPORATION, priority 2013, dated 2017).
